pIC50: −log10 of the molar value. Active and inactive are the calls of the source. The calls are words filed in the database; no cut-off is given here.
How the values were obtained:
[1] = system: HEK-293T; assay: Cytotoxicity against human HEK293T cells assessed as cell death by MTT assay; format: functional; settings: read-out: LC50 (the source's name)
[2] = system: MCF7; assay: Cytotoxicity against human MCF7 cells assessed as cell death after 24 hrs by MTT assay; format: functional; settings: MCF7, 24 h, read-out: LC50 (the source's name)
[3] = Cytotoxicity against African green monkey Vero cells assessed as cell death by MTT assay; format: cell-based; settings: chlorocebus sabaeus, read-out: LC50 (the source's name)
[4] = system: SiHa; assay: Cytotoxicity against human SiHa cells assessed as cell death after 24 hrs by MTT assay; format: functional; settings: read-out: LC50 (the source's name)
[5] = system: HEK-293T; assay: Induction of apoptosis in HEK293T cells assessed as reduction in PARP level at LC50 after 24 hrs by Western blot analysis; format: functional, cell-based; settings: Homo sapiens
[6] = system: SiHa; assay: Cytotoxicity against human SiHa cells assessed as cell death after 48 hrs by MTT assay; format: functional; settings: read-out: LC50 (the source's name)
[7] = system: HEK-293T; assay: Induction of DNA damage in HEK293T cells assessed as increase in comet length at LC50 after 24 hrs by Comet assay relative to untreated control; format: functional, cell-based; settings: Homo sapiens
[8] = system: HEK-293T; assay: Cytotoxicity against human HEK293T cells assessed as cell death after 48 hrs by MTT assay; format: functional; settings: read-out: LC50 (the source's name)
[9] = system: HEK-293T; assay: Induction of chromosomal damage in HEK293T cells assessed as micronuclei formation at LC50 after 24 hrs by cytokinesis-block micronucleus assay relative to untreated control; format: functional, cell-based; settings: Homo sapiens
[10] = system: HEK-293T; assay: Induction of apoptosis in HEK293T cells assessed as activation of caspase 3 at LC50 after 24 hrs by immunocytochemical analysis; format: functional, cell-based; settings: Homo sapiens
[11] = system: HEK-293T; assay: Induction of apoptosis in HEK293T cells assessed as apoptotic nuclei at LC50 after 24 hrs by DAPI staining-based fluorescent microscopy; format: functional, cell-based; settings: Homo sapiens
[12] = system: HeLa; assay: Cytotoxicity against human HeLa cells assessed as cell death after 48 hrs by MTT assay; format: functional; settings: read-out: LC50 (the source's name)
[13] = system: HeLa; assay: Cytotoxicity against human HeLa cells assessed as cell death after 24 hrs by MTT assay; format: functional; settings: read-out: LC50 (the source's name)
[14] = system: HEK-293T; assay: Cytotoxicity against human HEK293T cells assessed as cell death after 24 hrs by MTT assay; format: functional; settings: read-out: LC50 (the source's name)
[15] = system: HEK-293T; assay: Induction of apoptosis in HEK293T cells assessed as increase in p53 expression at LC50 after 24 hrs by Western blot analysis; format: functional, cell-based; settings: Homo sapiens
[16] = system: HEK-293T; assay: Induction of apoptosis in HEK293T cells assessed as chromatin condensation and nuclear fragmentation at LC50 after 24 hrs by DAPI staining-based fluorescent microscopy; format: functional, cell-based; settings: Homo sapiens
[17] = system: MCF7; assay: Cytotoxicity against human MCF7 cells assessed as cell death after 48 hrs by MTT assay; format: functional; settings: MCF7, 48 h, read-out: LC50 (the source's name)
[18] = biological target: Tubulin; assay: Inhibition of tubulin polymerization in HEK293T cell lysate after 15 mins by spectrophotometry; format: cell-free, Homo sapiens; settings: hek-293t
[19] = system: HEK-293T; assay: Cytotoxicity against human HEK293T cells assessed as inhibition of colony formation at LC50 after 24 hrs by crystal violet staining based clonogenic cell survival assay; format: functional
[20] = biological target: Tubulin (Homo sapiens) (UniProt P68371+Q9H4B7+P0DPH7+P68366+Q13509+Q71U36+P04350+Q3ZCM7+P07437+P68363+Q9BQE3+Q6PEY2+Q13885+Q9BVA1+Q9BUF5); assay: Inhibition of tubulin assembly in HEK293T cells assessed as formation of abnormal mitotic spindles at LC50 after 24 hrs by immunofluorescence based confocal microscopy; format: cell-based; settings: HEK-293T
[21] = system: HEK293; assay: Inhibition of anchorage-dependent HEK293T cell migration at LC50 after 6 to 24 hrs by wound healing assay; format: functional, cell-based; settings: Homo sapiens
[22] = system: HEK-293T; assay: Induction of cell cycle arrest in HEK293T cells assessed as cells accumulation at G2/M phase at LC50 after 24 hrs by PI staining-based FACS scan flow cytometry (reference value: 22.2 +/- 1.5%); format: functional, Homo sapiens

SMILES: COc1ccc(/C=C\c2cc(OC)c(OC)c(OC)c2)cc1O [COMBRETASTATIN A4]
- CC50 [1]: 8 µM
- CC50 [2]: 7 µM
- CC50 [3]: 11 µM
- CC50 [4]: 0.6 µM
- Activity [5]: Active
- CC50 [6]: 0.2 µM
- Activity [7]: Active
- CC50 [8]: 0.2 µM
- Activity [9]: Active
- Activity [10]: Active
- Activity [11]: Active
- CC50 [12]: 0.8 µM
- CC50 [13]: 6 µM
- CC50 [14]: 8 µM
- Activity [15]: Active
- Activity [16]: Active
- CC50 [17]: 2 µM

SMILES: COc1ccc(Nc2c(-c3cccc(O)c3)nc3ccccn23)cc1
- CC50 [1]: 47 µM
- pIC50 [18]: 4.38
- CC50 [3]: 74 µM

SMILES: COc1cc(Nc2c(C3C=Nc4ccccc43)nc3cnccn23)cc(OC)c1OC (stereo not drawn)
- CC50 [1]: 12 µM
- CC50 [2]: 18 µM
- pIC50 [18]: 4.96
- CC50 [3]: 70 µM
- inhibition [19]: Active
- CC50 [4]: 7 µM
- Activity [5]: Active
- CC50 [6]: 3 µM
- inhibition [20]: Active
- Activity [7]: Active
- CC50 [8]: 3 µM
- Activity [9]: Active
- Activity [10]: Active
- Activity [11]: Active
- CC50 [12]: 9 µM
- inhibition [21]: Active
- Activity [22]: 87.4%
- CC50 [13]: 17 µM
- CC50 [14]: 12 µM
- Activity [15]: Active
- Activity [16]: Active
- CC50 [17]: 6 µM

SMILES: COc1cc(-c2nc3cnccn3c2Nc2cc(OC)c(OC)c(OC)c2)cc(OC)c1O
- CC50 [1]: 34 µM
- pIC50 [18]: 4.47
- CC50 [3]: 62 µM

SMILES: COc1ccc(Nc2c(-c3ccc(Cl)cc3)nc3cnccn23)cc1
- CC50 [1]: 34 µM
- pIC50 [18]: 4.34
- CC50 [3]: 45 µM

SMILES: COc1ccc(-c2nc3ccccn3c2Nc2cc(OC)c(OC)c(OC)c2)cc1O
- CC50 [1]: 10 µM
- CC50 [2]: 20 µM
- pIC50 [18]: 4.92
- CC50 [3]: 50 µM
- inhibition [19]: Active
- CC50 [4]: 5 µM
- Activity [5]: Active
- CC50 [6]: 2 µM
- inhibition [20]: Active
- Activity [7]: Active
- CC50 [8]: 5 µM
- Activity [9]: Active
- Activity [10]: Active
- Activity [11]: Active
- CC50 [12]: 10 µM
- inhibition [21]: Active
- Activity [22]: 33.6%
- CC50 [13]: 15 µM
- CC50 [14]: 10 µM
- Activity [15]: Active
- Activity [16]: Active
- CC50 [17]: 12 µM

SMILES: COc1cc(Nc2c(-c3cccc(O)c3)nc3cnccn23)cc(OC)c1OC
- CC50 [1]: 42 µM
- pIC50 [18]: 4.41
- CC50 [3]: 63 µM

SMILES: COc1ccc(-c2nc3cnccn3c2Nc2cc(OC)c(OC)c(OC)c2)cc1O
- CC50 [1]: 38 µM
- pIC50 [18]: 4.42
- CC50 [3]: 50 µM

SMILES: COc1cc(Nc2c(-c3ccc(F)cc3)nc3cnccn23)cc(OC)c1OC
- CC50 [1]: 36 µM
- pIC50 [18]: 4.44
- CC50 [3]: 48 µM

SMILES: COc1ccc(Nc2c(-c3ccc(OC)c(O)c3)nc3ncccn23)cc1
- CC50 [1]: 54 µM
- pIC50 [18]: 4.27
- CC50 [3]: 56 µM

SMILES: COc1ccc(Nc2c(-c3ccc(OC)cc3)nc3ccccn23)cc1
- CC50 [1]: 34 µM
- pIC50 [18]: 4.47
- CC50 [3]: 54 µM

SMILES: COc1cc(Nc2c(-c3ccc(Cl)cc3)nc3cnccn23)cc(OC)c1OC
- CC50 [1]: 25 µM
- pIC50 [18]: 4.49
- CC50 [3]: 32 µM

SMILES: COc1ccc(Nc2c(-c3ccc(F)cc3)nc3cnccn23)cc1
- CC50 [1]: 56 µM
- pIC50 [18]: 4.36
- CC50 [3]: 72 µM

SMILES: COc1ccc(Nc2c(-c3cccc(B(O)O)c3)nc3ccccn23)cc1
- CC50 [1]: 48 µM
- pIC50 [18]: 4.32
- CC50 [3]: 58 µM

SMILES: COc1ccc(Nc2c(-c3cc(OC)c(OC)c(OC)c3)nc3ccccn23)cc1
- CC50 [1]: 10 µM
- CC50 [2]: 8 µM
- pIC50 [18]: 4.85
- CC50 [3]: 65 µM
- inhibition [19]: Active
- CC50 [4]: 5 µM
- Activity [5]: Active
- CC50 [6]: 2 µM
- inhibition [20]: Active
- Activity [7]: Active
- CC50 [8]: 5 µM
- Activity [9]: Active
- Activity [10]: Active
- Activity [11]: Active
- CC50 [12]: 5 µM
- inhibition [21]: Active
- Activity [22]: 40.7%
- CC50 [13]: 9 µM
- CC50 [14]: 10 µM
- Activity [15]: Active
- Activity [16]: Active
- CC50 [17]: 5 µM

SMILES: COc1ccc(-c2nc3cc(C)ccn3c2Nc2cc(OC)c(OC)c(OC)c2)cc1O
- CC50 [1]: 8 µM
- CC50 [2]: 15 µM
- pIC50 [18]: 5.00
- CC50 [3]: 48 µM
- inhibition [19]: Active
- CC50 [4]: 4 µM
- Activity [5]: Active
- CC50 [6]: 1.5 µM
- inhibition [20]: Active
- Activity [7]: Active
- CC50 [8]: 3 µM
- Activity [9]: Active
- Activity [10]: Active
- Activity [11]: Active
- CC50 [12]: 7 µM
- inhibition [21]: Active
- Activity [22]: 36.6%
- CC50 [13]: 15 µM
- CC50 [14]: 8 µM
- Activity [15]: Active
- Activity [16]: Active
- CC50 [17]: 10 µM

SMILES: COc1ccc(Nc2c(-c3ccc(OC)c(O)c3)nc3cnccn23)cc1
- CC50 [1]: 38 µM
- pIC50 [18]: 4.42
- CC50 [3]: 62 µM

SMILES: COc1ccc(-c2nc3sccn3c2Nc2cc(OC)c(OC)c(OC)c2)cc1O
- CC50 [1]: 36 µM
- pIC50 [18]: 4.44
- CC50 [3]: 62 µM

SMILES: COc1ccc(-c2nc3cccc(C)n3c2Nc2cc(OC)c(OC)c(OC)c2)cc1O
- CC50 [1]: 63 µM
- pIC50 [18]: 4.42
- CC50 [3]: 74 µM

SMILES: COc1ccc(-c2nc3sc4ccccc4n3c2Nc2cc(OC)c(OC)c(OC)c2)cc1O
- CC50 [1]: 22 µM
- pIC50 [18]: 4.70
- CC50 [3]: 26 µM

SMILES: COc1ccc(-c2nc3cnccn3c2Nc2cc(OC)c(OC)c(OC)c2)cc1
- CC50 [1]: 54 µM
- pIC50 [18]: 4.40
- CC50 [3]: 75 µM
